Test [1] has as its system cortical cell cultures. The test is described as follows: In vitro assay of NAALADase inhibitors on toxicity of NAAG. It is filed as cell-based, rats. To be noted: inhibitor 1 μM. The procedure:
Dissociated cortical cell cultures are prepared using the papain-dissociation method of Heuttner and Baughman (1986) as modified by Murphy and Baraban (1990). See TABLE VII for the Dissociated Culture Protocol as used herein. Fetuses of embryonic day 17 are removed from timed pregnancy rats (Harlan Sprague Dawley). The cortex is rapidly dissected out in Dulbecco's phosphate-buffered saline, stripped of meninges, and incubated in a papain solution for 15 minutes at 37° C. The tissue is then mechanically triturated and pelleted at 500 g (1000-2000 rpm on swinging bucket Beckman). The pellet is resuspended in a DNAase solution, triturated with a 10 ml pipette ×15-20, layered over a “10×10” solution containing albumin and trypsin inhibitor (see TABLE VII for an example of a “10×10” solution), repelleted, and resuspended in a plating medium containing 10% fetal bovine serum (HyClone A-1111-L), 5% heat-inactivated Equine serum (HyClone A-3311-L), and […] modified Earle's basal medium (MEM) (Gibco 51200-020) with high glucose (4.5 g/L), and 1 g/L NaHCO3. Each 24-well plate is pretreated with poly-D-lysine (0.5 ml/well of 10 μg/ml) for 1 h and rinsed with water before plating. Cultures are plated at 2.5×10^6 cells/ml with each well of a 24 well plate receiving 500 μl/well. Alternatively, 35 mm dishes can be plated at 2 ml/dish, 6 well plates at 2 ml/well, or 12 well plates at 1 ml/well. After plating, 50% of the medium is changed every 3-4 days with growth serum containing 5% heat-inactivated Equine serum (HyClone A3111-L), 95% modified Earle's basal medium (MEM)(Gibco 51200-020), and 1% L-Glutamine (Gibco 25030-081). Experiments are performed after 21 days in cultures. Cultures are maintained in a 5% CO2 atmosphere at 37° C. These methodologies are described in further detail below in the TABLE VII.
At the end of exposure, the cells are washed once with HEPES buffered saline solution and then replaced with serum free modified Earle's basal medium. The cultures are then returned to the CO2 incubator for 24 hour recovery.
Release of the cytosolic enzyme lactate dehydrogenase (LDH), a standard measure of cell lysis, is used to quantify injury (Koh and Choi, 1987). LDH-activity measurements are normalized to control for variability between culture preparations (Koh and Choi, 1987). […] This control measurement is subtracted from each experimental point. […] Only main effects of NAALADase inhibitors are considered; interactions between dose and condition are not examined statistically.

Test [2] has as its system Sprague-Dawley rats, 2 hour transient middle cerebral artery occlusion (MCAO). The test is described as follows: In vivo assay on brain injury following MCAO in Sprague-Dawley rats. The settings on record: 100 mg/kg IP then 20 mg/kg/hr IV for 4 hours. As to the method: In the control group (n=8), the rats received an IP injection of saline 30 minutes post-occlusion followed by IV saline infusion at a rate of 0.5 ml/hr. […] There was a 15 minute delay between IP and IV treatments for each rat. Twenty two hours following the reperfusion, the rats were euthanized and their brains were removed. Seven coronal sections (2 mm thick) were taken and stained with 1% solution of 2,3,5-triphenyltetraxolium chloride (TTC) for 20 minutes and then fixed in 10% formalin. The anterior and posterior surface of the most rostral brain section and the posterior surface of each of the other 6 sections were imaged. The quantification of infarct size of each brain was obtained using a computer aided-digital imaging analysis system (LOATS). The brain regions completely lacking TTC-staining were characterized as representative of infarcted tissue. The total infarct volume for each rat was calculated by numeric integration of the respective sequential brain areas.
Male Sprague-Dawley rats (260-320 g) were used. Prior to the experiment, the rats were individually housed and allowed free access to food and water. Each rat received two surgeries: jugular vein cannulation for IV infusion and MCAO. During surgeries, the rat was anesthetized with […] delivered in oxygen via an inhalation mask. The body temperature was monitored and regulated at normothermic level using a homeothermic heating system. First, a PE-50 polyethylene catheter was inserted into the right jugular vein. One hour later, the rat was reanesthetized for MCAO surgery. The MCAO was achieved using the endovascular suture method described by Long et al., Stroke, Vol. 20, pp. 84-91 (1989). Specifically, the right external carotid artery (ECA) was exposed, coagulated and transected. A 3-0 monofilament nylon suture with a blunted tip was introduced into the proximal stump of the ECA via an arteriotomy and advanced 20 mm from the carotid bifurcation until it lodged in the proximal region of the anterior cerebral artery, thereby occluding the origin of the MCA. The rats were allowed to wake up; 2 hours later, the rats were reanesthetized for reperfusion, during which the nylon suture was retracted to the stump of the ECA allowing blood recirculation to the MCA.

Test [3] relates to MPTP lesioned mice. The test is described as follows: In vivo assay on Parkinson's Disease (MPTP lesioned mice, TH immunostaining). The arrangement: species or system CD1 white mice. As to the method: MPTP lesioning of dopaminergic neurons in mice was used as an animal model of Parkinson's Disease, as described by Steiner, Proc. Natl. Acad. Sci., Vol. 94, pp. 2019-2024 (March 1997). In brief, four week old male CD1 white mice were dosed IP with 30 mg/kg of MPTP for 5 days. […] At 18 days following MPTP treatment, the mice were sacrificed and their brains were removed and sectioned. Immunostaining was performed on saggital and coronal brain sections using anti-tyrosine hydroxylase (TH) antibodies to quantitate survival and recovery of dopaminergic neurons.

For test [4], the system named is rats which had sustained dynorphin-induced spinal cord injury. Description: In vivo assay on dynorphin-induced spinal cord injury. The arrangement: species or system Sprague-Dawley rats. As to the method:
Dynorphin-induced spinal cord injury was performed according to Long et al., JPET, Vol. 269, No. 1, pp. 358-366 (1993). In brief, spinal subarachnoid injections were delivered using 30-gauge needles inserted between the L4-L5 vertebrae of male Sprague-Dawley rats (300-350 g). The rats were anesthetized with halothane and dorsal midline incisions were made immediately rostral to the pelvic girdle. By using the vertebral processes as guides, the needle was advanced to pass into the subarachnoid space surrounding the cauda equina. Correct needle pement was verified by CSF from the needle after its insertion. […] After injections, the incisions were treated with the topical antibacterial furazolidone and closed with wound clips. […]
Neurological function was evaluated using a 5-point ordinal scale, with scores being assigned as follows: 4=normal motor function; 3=mild paraparesis, with the ability to support weight and walk with impairment; 2=paraparesis, with the ability to make walking movements without fully supporting weight; 1=severe paraparesis, in which rats could make limited hind limb movement, but not walking movement; and 0=flaccid paralysis, with complete absence of any hind limb movement. […]
Differences in the neurological scores among treatment groups were determined by means of the Mann-Whitney U test or the Kruskal-Wallis test.

With `O=C(O)CCC(CP(=O)(O)O)C(=O)O` (stereo not drawn) [2-(phosphonomethyl)pentanedioic acid], the “% Toxicity” value in test [1] (NAAG 3 μM) is −4.71 (n = 1) %; in test [1] (NAAG 10 μM), −3.08 ± 0.81 (n = 3) %; in test [1] (NAAG 30 μM), −4.81 ± 1.13 (n = 3) %; in test [1] (NAAG 100 μM) it was −2.87 ± 0.78 (n = 3) %; in test [1] (NAAG 300 μM), −2.09 ± 0.48 (n = 3) %; in test [1] (NAAG 1 mM), 0.26 ± 1.11 (n = 3) %. In test [1] (NAAG 3 mM), the “% Toxicity” value is given as 16.83 ± 8.76 (n = 3) %. Moreover, the “mean total brain infarct volume” value worked out at 122±26 mm^3 in test [2] (20 minute pre-treatment), 208±40 mm^3 in test [2] (30 minute post-treatment), 125±57 mm^3 in test [2] (60 minute post-treatment) and 133±35 mm^3 in test [2] (120 minute post-treatment). Also, the “Percent Strial TH Innervation Density (mean ± SEM)” value in test [3] (MPTP 30 mg/kg IP for 5 days plus compound 10 mg/kg SC) is recorded as 16.28 ± 0.98%. In test [3] (lesioned mice, 10 mg/kg, p<0.001), the “recovery of TH-stained dopaminergic neurons (in words)” value is “significant recovery”. For the same compound, in test [4] (co-administered with dynorphin A, 24-hour post-injection, vs vehicle, p<0.05), the “motor scores (in words)” value was “significant improvement in motor scores”. The rats ambulatory in test [4] (co-treated with dynorphin A, 24 hours post-injection, 15 rats) is on record as 73%.

The values above are taken from patent publication US6413948B1, “Pharmaceutical compositions and methods of effecting a neuronal activity in an animal using naaladase inhibitors” (Guilford Pharmaceuticals Inc., priority 1996, dated 2002).
